In patent US20030232102A1, “Total glycosides of paeony, method to prepare the same and uses thereof” (priority 2001, published 2003):

Tested on: patients with rheumatoid arthritis
Assay: Phase II clinical study in rheumatoid arthritis: effectiveness (symptoms, physical examination, comprehensive evaluation)
Type: in vivo, human
Parameters: ESR Reduced to norm., % of cases / CRP Reduced to Norm., % of cases / RF Reduced to norm., % of cases: concentration or dose not given beside the values
Conditions: for AGS 50% increased, % of cases / AGS 50% increased, cases / CRP 50% reduced, % of cases / CRP 50% reduced, cases / CRP Reduced to Norm., % of cases / CRP Reduced to Norm., cases / ESR 50% reduced, % of cases / ESR 50% reduced, cases / ESR Reduced to norm., % of cases / ESR Reduced to norm., cases / ITJ 50% reduced, % of cases / ITJ 50% reduced, cases / ITJ Disappeared, % of cases / ITJ Disappeared, cases / MR 50% reduced, % of cases / MR 50% reduced, cases / MR Disappeared, % of cases / MR Disappeared, cases / NSJ 50% reduced, % of cases / NSJ 50% reduced, cases / NSJ Disappeared, % of cases / NSJ Disappeared, cases / RF 2 dilutions lower, % of cases / RF 2 dilutions lower, cases / RF Reduced to norm., cases: double blinded
Protocol: It was a multiple-centered, randomized, parallel, positive controlled Phrase II clinical study.
All clinical studies except the above mentioned 120 cases were conducted in a single-blind condition.
1) Age 18˜65, male or female who agreed to the investigational treatment for 12 weeks to 6 months. History of rheumatoid arthritis was within 3 years.
2) Documented Rheumatoid Arthritis based on a diagnostic criteria of 1987 Revised ARA Criteria for the Classification of Rheumatoid Arthritis
3) Diagnosis of a typical active stage of RA: A patient is said to be on an active stage of RA if he or she has satisfied at least 4 of the following 5 items.
2) Patient who quitted the treatment for the ineffectiveness 7 days after the start of administration was included in the efficacy analysis. Patient who quitted the treatment for the side effects was not included in the efficacy analysis but the safety analyses.
1) The placebo run-in period: Seven days before administration, the selected patients stopped using NSAIDs and took a placebo instead.
4) For the double-blinded study, patients in both groups would be given capsules and tablets in same shapes, odors and amount. Placebo of capsule or tablet were included. Neither doctors nor patients can tell the group of treatment from the other.
5) No analgesics, anti-inflammation drugs, immune regulatory agents or muscle relaxants were allowed during the period of study. Acetaminophen could be used when necessary. If a physical therapy was started before enrollment, it was allowed to be continued, yet, it should be taken all the way during the period of clinical study.
1) Pain at rest: patients were asked to scale the degree of pain with a ruler [drawing 1]
2) Morning stiffness: Patients were requested to make notes on duration of their morning joint stiffness, a time span from its appearance to recovery in minutes every morning. The doctors should evaluate their record sheets by questioning them. For example “Do you fell stiff in any of your joints? (today, these 2 days)” When get a “yes” in answer, then “when did you get up today?” and “when does the stiffness be gone?”
3) Swelling of joints: Take count of the index of joint swelling by summing up the degree number of each joint.
0=normal; 1=swelling soft tissues (synovium) without hydrarthrus; 2=swelling soft tissues (synovium) with hydrarthrus.
4) Tenderness of joints: Take count of the index of joint tenderness by summing up the degree number of each joint:
5) Grip strength: Fold the arm belt of a sphygmomanometer twice and seal it in a small cloth bag suitable for a hand to hold. Aerates the belt in pressure of 20 mm Hg. Patients were asked to grip the bag with their not braced left and right hand, the grip strength is the average pressures in mm Hg for three times.
6) Time consumed for a 15 meters' walk (Seconds): Time started from a calm standing to the final of 15 meters. The average of three times.
7) General joint function (criteria of ARA):
8) Self-scoring and physician's grading on disease conditions: Both patients and doctors were required to submit their score sheet every time on follow-up survey. The scoring was made upon following criteria:
9) Patient's general condition: condition on the physical strength, sleep and appetite.
No effect: less than 30% improvement in symptoms and physical signs.
Improved: About 50% improvement in symptoms and physical signs (including general conditions in physical strength, sleep and appetite).

[1] = double blind, n = 60 per group, 4 weeks
[2] = double blind, n = 60 per group, 8 weeks
[3] = double blind, n = 60 per group, 12 weeks

CN(Cc1cnc2nc(N)nc(N)c2n1)c1ccc(C(=O)N[C@@H](CCC(=O)O)C(=O)O)cc1 [MTX, Methotrexate]
Effective rate (4 weeks): 47.2% | Overall effectiveness: Improved, % of patients (4 weeks): 36.6% | Overall effectiveness: Improved, number of patient (4 weeks): 52 | Overall effectiveness: No effect, % of patients (4 weeks): 52.8% | Overall effectiveness: No effect, number of patient (4 weeks): 75 | Overall effectiveness: Obv. improved, % of patients (4 weeks): 10.6% | Overall effectiveness: Obv. improved, number of patient (4 weeks): 15 | Effective rate (8 weeks): 64.8% | Overall effectiveness: Improved, % of patients (8 weeks): 31.7% | Overall effectiveness: Improved, number of patient (8 weeks): 45 | Overall effectiveness: No effect, % of patients (8 weeks): 35.2% | Overall effectiveness: No effect, number of patient (8 weeks): 50 | Overall effectiveness: Obv. improved, % of patients (8 weeks): 33.1% | Overall effectiveness: Obv. improved, number of patient (8 weeks): 47 | Effective rate (12 weeks): 77.5% | Overall effectiveness: Improved, % of patients (12 weeks): 28.9% | Overall effectiveness: Improved, number of patient (12 weeks): 41 | Overall effectiveness: No effect, % of patients (12 weeks): 22.5% | Overall effectiveness: No effect, number of patient (12 weeks): 32 | Overall effectiveness: Obv. improved, % of patients (12 weeks): 48.6% | Overall effectiveness: Obv. improved, number of patient (12 weeks): 69 | Effective rate (24 weeks): 81.7% | Overall effectiveness: Improved, % of patients (24 weeks): 10.0% | Overall effectiveness: Improved, number of patient (24 weeks): 6 | Overall effectiveness: No effect, % of patients (24 weeks): 18.3% | Overall effectiveness: No effect, number of patient (24 weeks): 11 | Overall effectiveness: Obv. improved, % of patients (24 weeks): 71.7% | Overall effectiveness: Obv. improved, number of patient (24 weeks): 43 | Changes in RA perimeters: GS-L (double blind, 4 weeks, mean): 12.70 | Changes in RA perimeters: GS-R (double blind, 4 weeks, mean): 12.05 | Changes in RA perimeters: ISJ (double blind, 4 weeks, mean): 2.47 | Changes in RA perimeters: ITJ (double blind, 4 weeks, mean): 6.83 | Changes in RA perimeters: MR (double blind, 4 weeks, mean): 33.52 | Changes in RA perimeters: NSJ (double blind, 4 weeks, mean): 1.92 | Changes in RA perimeters: NTJ (double blind, 4 weeks, mean): 3.53 | Changes in RA perimeters: PR (double blind, 4 weeks, mean): 1.33 | Changes in RA perimeters: GS-L (double blind, 8 weeks, mean): 17.55 | Changes in RA perimeters: GS-R (double blind, 8 weeks, mean): 16.68 | Changes in RA perimeters: ISJ (double blind, 8 weeks, mean): 4.03 | Changes in RA perimeters: ITJ (double blind, 8 weeks, mean): 9.53 | Changes in RA perimeters: MR (double blind, 8 weeks, mean): 41.03 | Changes in RA perimeters: NSJ (double blind, 8 weeks, mean): 2.97 | Changes in RA perimeters: NTJ (double blind, 8 weeks, mean): 5.52 | Changes in RA perimeters: PR (double blind, 8 weeks, mean): 1.94 | Changes in RA perimeters: GS, L (double blind, 12 weeks, mean): 22.03 | Changes in RA perimeters: GS, R (double blind, 12 weeks, mean): 21.85 | Changes in RA perimeters: ITJ (double blind, 12 weeks, mean): 11.59 | Changes in RA perimeters: MR (double blind, 12 weeks, mean): 46.08 | Changes in RA perimeters: NSJ (double blind, 12 weeks, mean): 3.92 | Changes in RA perimeters: NTJ (double blind, 12 weeks, mean): 6.73 | Changes in RA perimeters: PR (double blind, 12 weeks, mean): 2.60 | Changes in RA perimeters: TSJ (double blind, 12 weeks, mean): 5.08 | Effective rate [1]: 43.3% | Improved, % of patients [1]: (31.7%) | Improved, number of patients [1]: 19 | No effect, % of patients [1]: (56.7%) | No effect, number of patients [1]: 34 | Obviously improved, % of patients [1]: (11.7%) | Obviously improved, number of patients [1]: 7 | Effective rate [2]: 66.7% | Improved, % of patients [2]: (31.7%) | Improved, number of patients [2]: 19 | No effect, % of patients [2]: (33.3%) | No effect, number of patients [2]: 20 | Obviously improved, % of patients [2]: (35.0%) | Obviously improved, number of patients [2]: 21 | Effective rate [3]: 75.0% | Improved, % of patients [3]: (26.7%) | Improved, number of patients [3]: 16 | No effect, % of patients [3]: (25.0%) | No effect, number of patients [3]: 15 | Obviously improved, % of patients [3]: (48.33%) | Obviously improved, number of patients [3]: 29 | AGS 50% increased, % of cases (4 weeks): 5.0% | AGS 50% increased, cases (4 weeks): 3 | CRP 50% reduced, % of cases (4 weeks): 16.7% | CRP 50% reduced, cases (4 weeks): 10 | CRP Reduced to Norm., % of cases (4 weeks): 6.7% | CRP Reduced to Norm., cases (4 weeks): 4 | ESR 50% reduced, % of cases (4 weeks): 30.0% | ESR 50% reduced, cases (4 weeks): 18 | ESR Reduced to norm., % of cases (4 weeks): 26.7% | ESR Reduced to norm., cases (4 weeks): 16 | ITJ 50% reduced, % of cases (4 weeks): 31.7% | ITJ 50% reduced, cases (4 weeks): 19 | ITJ Disappeared, % of cases (4 weeks): 3.3% | ITJ Disappeared, cases (4 weeks): 2 | MR 50% reduced, % of cases (4 weeks): 38.3% | MR 50% reduced, cases (4 weeks): 23 | MR Disappeared, % of cases (4 weeks): 25.0% | MR Disappeared, cases (4 weeks): 15 | NSJ 50% reduced, % of cases (4 weeks): 40.0% | NSJ 50% reduced, cases (4 weeks): 24 | NSJ Disappeared, % of cases (4 weeks): 15.0% | NSJ Disappeared, cases (4 weeks): 9 | RF 2 dilutions lower, % of cases (4 weeks): 13.3% | RF 2 dilutions lower, cases (4 weeks): 8 | RF Reduced to norm., cases (4 weeks): 0 | AGS 50% increased, % of cases (8 weeks): 10.0% | AGS 50% increased, cases (8 weeks): 6 | CRP 50% reduced, % of cases (8 weeks): 26.7% | CRP 50% reduced, cases (8 weeks): 16 | CRP Reduced to Norm., % of cases (8 weeks): 25.0% | CRP Reduced to Norm., cases (8 weeks): 15 | ESR 50% reduced, % of cases (8 weeks): 41.7% | ESR 50% reduced, cases (8 weeks): 25 | ESR Reduced to norm., % of cases (8 weeks): 31.7% | ESR Reduced to norm., cases (8 weeks): 19 | ITJ 50% reduced, % of cases (8 weeks): 43.3% | ITJ 50% reduced, cases (8 weeks): 26 | ITJ Disappeared, % of cases (8 weeks): 3.3% | ITJ Disappeared, cases (8 weeks): 2 | MR 50% reduced, % of cases (8 weeks): 53.3% | MR 50% reduced, cases (8 weeks): 32 | MR Disappeared, % of cases (8 weeks): 21.7% | MR Disappeared, cases (8 weeks): 13 | NSJ 50% reduced, % of cases (8 weeks): 55.0% | NSJ 50% reduced, cases (8 weeks): 33 | NSJ Disappeared, % of cases (8 weeks): 20.0% | NSJ Disappeared, cases (8 weeks): 12 | RF 2 dilutions lower, % of cases (8 weeks): 36.7% | RF 2 dilutions lower, cases (8 weeks): 22 | RF Reduced to norm., cases (8 weeks): 0 | AGS 50% increased, % of cases (12 weeks): 15.0% | AGS 50% increased, cases (12 weeks): 9 | CRP 50% reduced, % of cases (12 weeks): 33.3% | CRP 50% reduced, cases (12 weeks): 20 | CRP Reduced to Norm., % of cases (12 weeks): 8.3% | CRP Reduced to Norm., cases (12 weeks): 5 | ESR 50% reduced, % of cases (12 weeks): 51.7% | ESR 50% reduced, cases (12 weeks): 31 | ESR Reduced to norm., % of cases (12 weeks): 33.3% | ESR Reduced to norm., cases (12 weeks): 20 | ITJ 50% reduced, % of cases (12 weeks): 51.7% | ITJ 50% reduced, cases (12 weeks): 31 | ITJ Disappeared, % of cases (12 weeks): 15.0% | ITJ Disappeared, cases (12 weeks): 9 | MR 50% reduced, % of cases (12 weeks): 60.0% | MR 50% reduced, cases (12 weeks): 36 | MR Disappeared, % of cases (12 weeks): 25.0%
